From US8889699B2, “5-fluorouracil derivative” (Delta-Fly Pharma, Inc., priority 2009, dated 2014)
Read-outs that look alike come from different tables or passages of the source.

Molecular target: T1, OPRT (Homo sapiens, UniProt P11172)
T1 construct: the obtained supernatant was used as a DPD enzyme solution or an OPRT enzyme solution; from tissue; 105,000 g supernatant of homogenate
T1 sequence (P11172 1-480): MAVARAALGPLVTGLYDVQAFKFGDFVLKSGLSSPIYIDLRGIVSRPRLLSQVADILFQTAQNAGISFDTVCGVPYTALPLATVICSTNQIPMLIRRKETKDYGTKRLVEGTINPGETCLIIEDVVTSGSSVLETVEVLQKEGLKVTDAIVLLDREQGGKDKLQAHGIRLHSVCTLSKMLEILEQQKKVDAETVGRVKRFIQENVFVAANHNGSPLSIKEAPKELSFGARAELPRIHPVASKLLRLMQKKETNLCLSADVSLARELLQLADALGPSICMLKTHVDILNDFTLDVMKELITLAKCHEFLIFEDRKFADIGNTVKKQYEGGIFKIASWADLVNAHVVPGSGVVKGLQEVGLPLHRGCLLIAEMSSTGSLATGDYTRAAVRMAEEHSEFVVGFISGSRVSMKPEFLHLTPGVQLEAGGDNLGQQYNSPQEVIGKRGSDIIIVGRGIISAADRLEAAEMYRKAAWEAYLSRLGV
Test: OPRT inhibitory action in vitro (enzyme reaction, tritium-labeled 5-FU as substrate)
Type: biochemical
Procedure: The resulting product was diluted to concentrations of 1 mM, 100 μM, 10 μM, and 1 μM with a 10 mM potassium phosphate buffer solution (pH 6.0), thereby obtaining Test Liquids 1. The obtained Test Liquids 1 were separately added to the enzyme reaction solution described below to give final concentrations of 200 μM, 20 μM, 2 μM, and 0.2 μM. • (b) Test liquid preparation (2): As a DPD inhibitor, 5-chloro-2,4-dihydroxypyridine (CDHP; gimeracil) was dissolved to a concentration of 10 mM in a 10 mM potassium phosphate buffer solution (pH 6.0). The resulting product was diluted to concentrations of 1 mM, 100 μM, 10 μM, and 1 μM, thereby obtaining Test Liquids 2. The obtained Test Liquids 2 were separately added to the enzyme reaction solution to give final concentrations of 200 μM, 20 μM, 2 μM, and 0.2 μM. • (c) Test liquid preparation (3): As an OPRT inhibitor, citrazinic acid (Citra. A.) was dissolved to a concentration of 10 mM in 20 mM trishydroxyaminomethane-hydrochloric buffer solution (pH 8.0). Thereafter, the resulting product was diluted to concentrations of 1 mM, 100 μM, and 10 μM with a 10 mM potassium phosphate buffer solution, thereby obtaining Test Liquids (3). The obtained Test Liquids 3 were separately added to the enzyme reaction solution to give final concentrations of 200 μM, 20 μM, and 2 μM. • (d) Preparation of enzyme solution: The liver of an 8-week old SD rat was used as a DPD enzyme source, while human tumor cells that had been transplanted into a nude mouse and proliferated therein were used as an OPRT enzyme source. Specifically, immediately after a rat liver or successively-transplanted human tumor cells were extracted, a 50-mM tris-hydrochloric acid buffer solution (pH 8.0) containing 0.25 M saccharose, 5 mM magnesium chloride, and 1 mM dithreitol was added thereto to a concentration of 25% (w/v) and homogenized. Thereafter, ultracentrifugation was performed at 105,000 g for 60 minutes, and the obtained supernatant was used as a DPD enzyme solution or an OPRT enzyme solution. • (e) Enzyme reaction: A DPD enzyme reaction was carried out in accordance with the method of Tatsumi et al. (Gann, 78: 748-755 (1987)) using 5-FU labeled with tritium as a substrate. An OPRT enzyme reaction was carried out in accordance with the method of Shirasaka et al. (Cancer Res., 53: 4004-4009 (1993)) using 5-FU labeled with tritium as a substrate. Then, the activity of a control group (with no test compound) and test compound groups was measured. The percent inhibition of the test compound relative to DPD or OPRT was calculated using the following formula: [1-(the enzyme activity with the test compound/the enzyme activity of the control group)]×100(%).
The resulting product was diluted to concentrations of 1 mM, 100 μM, 10 μM, and 1 μM with a 10 mM potassium phosphate buffer solution (pH 6.0), thereby obtaining Test Liquids 1. The obtained Test Liquids 1 were separately added to the enzyme reaction solution described below to give final concentrations of 200 μM, 20 μM, 2 μM, and 0.2 μM. • (b) Preparation of enzyme solution: The liver of an 8-week old SD rat was used as a DPD enzyme source, while human tumor cells that had been transplanted into a nude mouse and proliferated therein were used as an OPRT enzyme source. Specifically, immediately after a rat liver or successively-transplanted human tumor cells were extracted, a 50-mM tris-hydrochloric acid buffer solution (pH 8.0) containing 0.25 M saccharose, 5 mM magnesium chloride, and 1 mM dithreitol was added thereto to a concentration of 25% (w/v) and homogenized. Thereafter, ultracentrifugation was performed at 105,000 g for 60 minutes, and the obtained supernatant was used as a DPD enzyme solution or an OPRT enzyme solution. • (c) Enzyme reaction: A DPD enzyme reaction was carried out in accordance with the method of Tatsumi et al. (Gann, 78: 748-755 (1987)) using 5-FU labeled with tritium as a substrate. […]

[1] = 0.2 μM, Table 2, read-out: OPRT Inhibition (%)
[2] = 2 μM, Table 2, read-out: OPRT Inhibition (%)
[3] = Conc. 0.2 μM, Table 1, read-out: OPRT Inhibitory Activity: Inhibition
[4] = Conc. 2 μM, Table 1, read-out: OPRT Inhibitory Activity: Inhibition

| Compound | inhibition at 0.2 µM [1] [%] | inhibition at 2 µM [2] [%] | OPRT Inhibitory Activity: Activity (Conc. 0.2 μM, Table 1) [nmol/mL/min] | inhibition at 0.2 µM [3] [%] | OPRT Inhibitory Activity: Activity (Conc. 2 μM, Table 1) [nmol/mL/min] | inhibition at 2 µM [4] [%] | OPRT Inhibitory Activity: Activity (Conc. 20 μM, Table 1) [nmol/mL/min] | inhibition at 20 µM (Conc. 20 μM, Table 1) [%] | OPRT Inhibitory Activity: Activity (Conc. 200 μM, Table 1) [nmol/mL/min] | inhibition at 200 µM (Conc. 200 μM, Table 1) [%] | further results |
| --- | --- | --- | --- | --- | --- | --- | --- | --- | --- | --- | --- |
| O=C(O)c1cc(O)nc(O)c1 [Citra. A., citrazinic acid, reference compound] | 31.9 | 75.1 | 0.379 | 0 | 0.301 | 20 | 0.173 | 54 | 0.075 | 80 |  |
| CCOCn1cc(F)c(=O)n(C(=O)c2cccc(C(=O)Oc3cc(OC(=O)c4cc(O)nc(O)c4)c(Cl)cn3)c2)c1=O [Compound I-2, 3-{3-[4-(2,6-dihydroxyisonicotinoyloxy)-5-chloro-2-pyridyloxycarbonyl]benzoyl}-1-ethoxymethyl-5-fluorouracil] |  |  | 0.375 | 0 | 0.280 | 25.5 | 0.168 | 55.3 | 0.069 | 81.6 |  |
| CCOCn1cc(F)c(=O)n(C(=O)c2cccc(C(=O)Oc3cc(OC(=O)c4cc(OC(=O)C5CCCC5)nc(OC(=O)C5CCCC5)c4)c(Cl)cn3)c2)c1=O [Compound I-9, 3-{3-[4-(2,6-dicyclopentanecarbonyloxyisonicotinoyloxy)-5-chloro-2-pyridyloxycarbonyl]benzoyl}-1-ethoxymethyl-5-fluorouracil] | 41.2 | 75.9 |  |  |  |  |  |  |  |  |  |
| CCOCn1cc(F)c(=O)n(C(=O)c2cccc(C(=O)Oc3cc(OC(=O)c4cc(OC(C)=O)nc(OC(C)=O)c4)c(Cl)cn3)c2)c1=O [Compound I-10, 3-{3-[4-(2,6-diacetyloxyisonicotinoyloxy)-5-chloro-2-pyridyloxycarbonyl]benzoyl}-1-ethoxymethyl-5-fluorouracil] | 27.8 | 76.4 |  |  |  |  |  |  |  |  |  |
| CCOCn1cc(F)c(=O)n(C(=O)c2cccc(C(=O)Oc3cc(OC(=O)c4cc(OC(=O)CC)nc(OC(=O)CC)c4)c(Cl)cn3)c2)c1=O [Compound I-11, 3-{3-[4-(2,6-dipropionyloxyisonicotinoyloxy)-5-chloro-2-pyridyloxycarbonyl]benzoyl}-1-ethoxymethyl-5-fluorouracil] |  |  |  |  |  |  |  |  |  |  | IC50 (5-FU as substrate, Test Example 4, read-out: IC50 of OPRT activity inhibition): ~15 µM; OPRT Inhibitory Activity: Activity (Conc. 0.2 μM, Table 5): 0.101 nmol/mL/min; inhibition at 0.2 µM (Conc. 0.2 μM, Table 5, read-out: OPRT Inhibitory Activity: Inhibition): 42.6%; OPRT Inhibitory Activity: Activity (Conc. 2 μM, Table 5): 0.098 nmol/mL/min; inhibition at 2 µM (Conc. 2 μM, Table 5, read-out: OPRT Inhibitory Activity: Inhibition): 73.4%; OPRT Inhibitory Activity: Activity (Conc. 20 μM, Table 5): 0.046 nmol/mL/min; inhibition at 20 µM (Conc. 20 μM, Table 5): 87.5% |
